What all share (experiment): relative viability (nuclei count vs DMSO), 5 days (fraction); higher = more cells survive
Compound in the experiment “IPA-3 + Tozasertib”: C1=CC=C2C(=C1)C=CC(=C2SSC3=C(C=CC4=CC=CC=C43)O)O [IPA-3] + Cc1cc(Nc2cc(N3CCN(C)CC3)nc(Sc3ccc(NC(=O)C4CC4)cc3)n2)n[nH]1 [Tozasertib] (partner 0.1 µM)
In outline: (§1)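 Relative viability is defined as nuclei in treated wells over nuclei in vehicle wells. Duplicate plates were run and medians reported. Lung cancer cell lines in 1536-well plates were dosed by pin tool one day after seeding, with one drug or with a fixed anchor-drug dose plus five library-drug doses (not always all listed) in √10 steps, and nuclei were counted after 5 days.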

Compound in the experiment “Doramapimod + OSI-027”: Cc1ccc(-n2nc(C(C)(C)C)cc2NC(=O)Nc2ccc(OCCN3CCOCC3)c3ccccc23)cc1 [Doramapimod] + COc1cccc2cc(-c3nc([C@H]4CC[C@H](C(=O)O)CC4)n4ncnc(N)c34)[nH]c12 [OSI-027] (partner 0.5 µM)
In outline:
as §1

Compound in the experiment “RAF265 + Pictilisib”: Cn1c(Nc2ccc(C(F)(F)F)cc2)nc2cc(Oc3ccnc(-c4ncc(C(F)(F)F)[nH]4)c3)ccc21 [RAF265] + CS(=O)(=O)N1CCN(Cc2cc3nc(-c4cccc5[nH]ncc45)nc(N4CCOCC4)c3s2)CC1 [Pictilisib] (partner 1 µM)
In short, it runs like this: as §1

Compound in the experiment “RAF265 + Vorinostat”: Cn1c(Nc2ccc(C(F)(F)F)cc2)nc2cc(Oc3ccnc(-c4ncc(C(F)(F)F)[nH]4)c3)ccc21 [RAF265] + O=C(CCCCCCC(=O)Nc1ccccc1)NO [Vorinostat] (partner 1 µM)
In short, it runs like this:
as §1

NCI-H2023: the relative viability with IPA-3 + Tozasertib (first compound 0.2 µM) was determined as 0.321; with IPA-3 + Tozasertib (first compound 0.6325 µM), 0.347; in the experiment with IPA-3 + Tozasertib (first compound 2 µM), 0.365; with IPA-3 + Tozasertib (first compound 6.325 µM), 0.39; with IPA-3 + Tozasertib (first compound 20 µM) it was 0.424; in the experiment with Doramapimod + OSI-027 (first compound 0.02 µM) it was 0.362. Also, the relative viability in the experiment with Doramapimod + OSI-027 (first compound 0.06325 µM) came out at 0.362; with Doramapimod + OSI-027 (first compound 0.2 µM), 0.369; with Doramapimod + OSI-027 (first compound 0.6325 µM), 0.479; with Doramapimod + OSI-027 (first compound 2 µM), 0.301; with RAF265 + Pictilisib (first compound 0.01 µM), 0.243; in the experiment with RAF265 + Pictilisib (first compound 0.03162 µM) it was 0.212. For the same cell line, the relative viability in the experiment with RAF265 + Pictilisib (first compound 0.1 µM) was found to be 0.272; in the experiment with RAF265 + Pictilisib (first compound 0.3162 µM), 0.152; with RAF265 + Pictilisib (first compound 1 µM), 0.214; with RAF265 + Vorinostat (first compound 0.01 µM), 0.59; with RAF265 + Vorinostat (first compound 0.03162 µM), 0.501; in the experiment with RAF265 + Vorinostat (first compound 0.1 µM) it was 0.707. In addition, the figures for the relative viability in the experiment with RAF265 + Vorinostat (first compound 0.3162 µM) and in the experiment with RAF265 + Vorinostat (first compound 1 µM) were 0.515 and 0.381, respectively.

As for NCI-H2085, the relative viability with IPA-3 + Tozasertib (first compound 0.2 µM) is 0.907; in the experiment with IPA-3 + Tozasertib (first compound 0.6325 µM) it was 0.748; in the experiment with IPA-3 + Tozasertib (first compound 2 µM), 0.823; in the experiment with IPA-3 + Tozasertib (first compound 6.325 µM), 0.908; with IPA-3 + Tozasertib (first compound 20 µM) it was 0.951; with Doramapimod + OSI-027 (first compound 0.02 µM), 0.645. Besides, the relative viability with Doramapimod + OSI-027 (first compound 0.06325 µM) came out at 0.706; in the experiment with Doramapimod + OSI-027 (first compound 0.2 µM) it was 0.688; with Doramapimod + OSI-027 (first compound 0.6325 µM), 0.698; with Doramapimod + OSI-027 (first compound 2 µM) it was 0.544; in the experiment with RAF265 + Pictilisib (first compound 0.01 µM), 0.407; with RAF265 + Pictilisib (first compound 0.03162 µM), 0.478. Moreover, the relative viability came to 0.502 with RAF265 + Pictilisib (first compound 0.1 µM); 0.437 with RAF265 + Pictilisib (first compound 0.3162 µM); 0.368 in the experiment with RAF265 + Pictilisib (first compound 1 µM); 0.891 with RAF265 + Vorinostat (first compound 0.01 µM); 0.714 in the experiment with RAF265 + Vorinostat (first compound 0.03162 µM); 0.82 in the experiment with RAF265 + Vorinostat (first compound 0.1 µM). Moreover, the relative viability stood at 0.788 with RAF265 + Vorinostat (first compound 0.3162 µM) and 0.803 with RAF265 + Vorinostat (first compound 1 µM).

NCI-H2087: the relative viability in the experiment with IPA-3 + Tozasertib (first compound 0.2 µM) was found to be 0.273; with IPA-3 + Tozasertib (first compound 0.6325 µM), 0.349; with IPA-3 + Tozasertib (first compound 2 µM) it was 0.274; with IPA-3 + Tozasertib (first compound 6.325 µM), 0.221; with IPA-3 + Tozasertib (first compound 20 µM), 0.253; with Doramapimod + OSI-027 (first compound 0.02 µM), 0.567. The relative viability is 0.449 with Doramapimod + OSI-027 (first compound 0.06325 µM); 0.51 with Doramapimod + OSI-027 (first compound 0.2 µM); 0.655 in the experiment with Doramapimod + OSI-027 (first compound 0.6325 µM); 0.506 with Doramapimod + OSI-027 (first compound 2 µM); 0.96 with RAF265 + Pictilisib (first compound 0.01 µM); 0.907 in the experiment with RAF265 + Pictilisib (first compound 0.03162 µM). For the same cell line, the relative viability in the experiment with RAF265 + Pictilisib (first compound 0.1 µM) came to 0.884; with RAF265 + Pictilisib (first compound 0.3162 µM), 0.46; with RAF265 + Pictilisib (first compound 1 µM), 0.372; with RAF265 + Vorinostat (first compound 0.01 µM), 0.634; in the experiment with RAF265 + Vorinostat (first compound 0.03162 µM), 0.359; in the experiment with RAF265 + Vorinostat (first compound 0.1 µM), 0.757. The relative viability in the experiment with RAF265 + Vorinostat (first compound 0.3162 µM) was found to be 0.864; with RAF265 + Vorinostat (first compound 1 µM), 0.719.

With NCI-H2126, the relative viability in the experiment with IPA-3 + Tozasertib (first compound 0.2 µM) came out at 0.922; with IPA-3 + Tozasertib (first compound 0.6325 µM), 0.78; with IPA-3 + Tozasertib (first compound 2 µM), 0.875; with IPA-3 + Tozasertib (first compound 6.325 µM) it was 0.842; with IPA-3 + Tozasertib (first compound 20 µM), 0.872; with Doramapimod + OSI-027 (first compound 0.02 µM) it was 0.79. The relative viability with Doramapimod + OSI-027 (first compound 0.06325 µM) worked out at 0.689; with Doramapimod + OSI-027 (first compound 0.2 µM) it was 0.631; with Doramapimod + OSI-027 (first compound 0.6325 µM) it was 0.71; with Doramapimod + OSI-027 (first compound 2 µM), 0.58; in the experiment with RAF265 + Pictilisib (first compound 0.01 µM), 0.5; in the experiment with RAF265 + Pictilisib (first compound 0.03162 µM), 0.491. The relative viability came to 0.491 with RAF265 + Pictilisib (first compound 0.1 µM); 0.405 in the experiment with RAF265 + Pictilisib (first compound 0.3162 µM); 0.415 in the experiment with RAF265 + Pictilisib (first compound 1 µM); 0.841 with RAF265 + Vorinostat (first compound 0.01 µM); 0.771 with RAF265 + Vorinostat (first compound 0.03162 µM); 0.733 with RAF265 + Vorinostat (first compound 0.1 µM). Besides, the relative viability came out at 0.673 with RAF265 + Vorinostat (first compound 0.3162 µM) and 0.464 in the experiment with RAF265 + Vorinostat (first compound 1 µM).

Turning to NCI-H2170, the relative viability in the experiment with IPA-3 + Tozasertib (first compound 0.2 µM) was found to be 0.822; with IPA-3 + Tozasertib (first compound 0.6325 µM), 0.777; with IPA-3 + Tozasertib (first compound 2 µM), 0.675; in the experiment with IPA-3 + Tozasertib (first compound 6.325 µM), 0.644; with IPA-3 + Tozasertib (first compound 20 µM), 0.769; with Doramapimod + OSI-027 (first compound 0.02 µM), 0.724. Further, the relative viability in the experiment with Doramapimod + OSI-027 (first compound 0.06325 µM) was determined as 0.784; with Doramapimod + OSI-027 (first compound 0.2 µM), 0.716; in the experiment with Doramapimod + OSI-027 (first compound 0.6325 µM), 0.712; with Doramapimod + OSI-027 (first compound 2 µM), 0.677; with RAF265 + Pictilisib (first compound 0.01 µM), 0.34; in the experiment with RAF265 + Pictilisib (first compound 0.03162 µM), 0.283. Besides, the relative viability in the experiment with RAF265 + Pictilisib (first compound 0.1 µM) was found to be 0.287; with RAF265 + Pictilisib (first compound 0.3162 µM), 0.214; with RAF265 + Pictilisib (first compound 1 µM), 0.239; in the experiment with RAF265 + Vorinostat (first compound 0.01 µM), 0.859; in the experiment with RAF265 + Vorinostat (first compound 0.03162 µM), 0.859; in the experiment with RAF265 + Vorinostat (first compound 0.1 µM), 0.761. Besides, the relative viability with RAF265 + Vorinostat (first compound 0.3162 µM) was determined as 0.393; with RAF265 + Vorinostat (first compound 1 µM), 0.521.

For NCI-H2228, the relative viability in the experiment with IPA-3 + Tozasertib (first compound 0.2 µM) was determined as 0.245; with IPA-3 + Tozasertib (first compound 0.6325 µM), 0.255; with IPA-3 + Tozasertib (first compound 2 µM), 0.29; in the experiment with IPA-3 + Tozasertib (first compound 6.325 µM) it was 0.301; with IPA-3 + Tozasertib (first compound 20 µM) it was 0.294; in the experiment with Doramapimod + OSI-027 (first compound 0.02 µM), 0.779. The relative viability in the experiment with Doramapimod + OSI-027 (first compound 0.06325 µM) is 0.513; in the experiment with Doramapimod + OSI-027 (first compound 0.2 µM), 0.571; in the experiment with Doramapimod + OSI-027 (first compound 0.6325 µM), 0.671; with Doramapimod + OSI-027 (first compound 2 µM) it was 0.388; in the experiment with RAF265 + Pictilisib (first compound 0.01 µM), 0.539; with RAF265 + Pictilisib (first compound 0.03162 µM), 0.371. Besides, the relative viability with RAF265 + Pictilisib (first compound 0.1 µM) was 0.465; with RAF265 + Pictilisib (first compound 0.3162 µM), 0.208; with RAF265 + Pictilisib (first compound 1 µM) it was 0.255; in the experiment with RAF265 + Vorinostat (first compound 0.01 µM) it was 0.554; in the experiment with RAF265 + Vorinostat (first compound 0.03162 µM), 0.653; with RAF265 + Vorinostat (first compound 0.1 µM) it was 0.52. The values for the relative viability in the experiment with RAF265 + Vorinostat (first compound 0.3162 µM) and in the experiment with RAF265 + Vorinostat (first compound 1 µM) were 0.324 and 0.275, respectively.

In the case of NCI-H2347, the relative viability with IPA-3 + Tozasertib (first compound 0.2 µM) came out at 0.585; with IPA-3 + Tozasertib (first compound 0.6325 µM), 0.598; with IPA-3 + Tozasertib (first compound 2 µM), 0.614; with IPA-3 + Tozasertib (first compound 6.325 µM), 0.593; with IPA-3 + Tozasertib (first compound 20 µM) it was 0.656; with Doramapimod + OSI-027 (first compound 0.02 µM) it was 0.509. Also, the relative viability stood at 0.474 with Doramapimod + OSI-027 (first compound 0.2 µM); 0.452 with Doramapimod + OSI-027 (first compound 0.6325 µM); 0.423 with Doramapimod + OSI-027 (first compound 2 µM); 0.789 with RAF265 + Pictilisib (first compound 0.01 µM); 0.952 with RAF265 + Pictilisib (first compound 0.03162 µM); 0.652 with RAF265 + Pictilisib (first compound 0.1 µM). In addition, the relative viability with RAF265 + Pictilisib (first compound 0.3162 µM) is 0.629; in the experiment with RAF265 + Pictilisib (first compound 1 µM), 0.245; with RAF265 + Vorinostat (first compound 0.01 µM), 0.611; in the experiment with RAF265 + Vorinostat (first compound 0.03162 µM), 0.517; with RAF265 + Vorinostat (first compound 0.1 µM), 0.564; with RAF265 + Vorinostat (first compound 0.3162 µM), 0.458. Moreover, the relative viability in the experiment with RAF265 + Vorinostat (first compound 1 µM) was 0.344.

(Values after the supplement of paper PMC10307832.)
